For the experiment, the target named is T1, ARID3A (Homo sapiens, UniProt Q99856).
T1 construct: recombinant human protein immobilised on CM5 chip
T1 sequence (Q99856 1-593): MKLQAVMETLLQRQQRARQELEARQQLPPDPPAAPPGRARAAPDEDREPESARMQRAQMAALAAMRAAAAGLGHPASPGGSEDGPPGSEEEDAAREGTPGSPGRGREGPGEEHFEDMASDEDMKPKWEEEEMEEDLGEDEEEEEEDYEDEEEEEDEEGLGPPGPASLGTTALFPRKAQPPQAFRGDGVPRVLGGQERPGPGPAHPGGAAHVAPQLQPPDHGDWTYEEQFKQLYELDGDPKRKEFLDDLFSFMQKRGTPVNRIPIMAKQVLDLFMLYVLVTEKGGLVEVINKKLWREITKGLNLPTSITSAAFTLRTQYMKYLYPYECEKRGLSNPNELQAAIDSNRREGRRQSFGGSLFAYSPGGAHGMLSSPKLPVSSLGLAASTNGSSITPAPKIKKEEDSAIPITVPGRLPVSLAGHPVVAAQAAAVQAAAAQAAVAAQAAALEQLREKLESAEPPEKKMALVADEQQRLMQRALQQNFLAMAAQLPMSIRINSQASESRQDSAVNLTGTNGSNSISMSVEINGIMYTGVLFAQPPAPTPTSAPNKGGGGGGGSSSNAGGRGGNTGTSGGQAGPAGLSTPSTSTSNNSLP
The experiment is described as follows: SPR (Biacore T200, CM5 chip, kinetic analysis). The format is binding. (In general: Surface plasmon resonance follows binding to a sensor surface in real time, without labels.)

The text below walks through data of PMC12667509, “Inhibition of Macrophage ARID3A Alleviates Myocardial Ischemia‐Reperfusion Injury After Heart Transplantation by Reducing THBS1/CD47 Signaling‐Mediated Neutrophil Extracellular Traps Formation” (Advanced Science, 2025).

Each structure is given as a SMILES string.

Take `C=C(CC(=O)OCCCCCCCC)C(=O)O` [4‐OI, 4‐octyl itaconate]: the dissociation constant (Kd) came to 7.64 µM.

By Kd is commonly meant a measure of binding affinity in units of concentration.
